In PubChem BioAssay (NCI):
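48-hour exposure; five concentrations; linearly interpolated endpoints. GI50: concentration for 50% inhibition of growth. Definition used: TGI = concentration required for complete inhibition of growth.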

Key:
Experiment in all cases: DTP human tumour cell line panel, 48 h
IGROV1 ovarian = test system: IGROV1 ovarian
HCC-2998 colon = test system: HCC-2998 colon
MOLT-4 leukemia = test system: MOLT-4 leukemia
U251 CNS = test system: U251 CNS
SK-OV-3 ovarian = test system: SK-OV-3 ovarian
NCI-H226 lung = test system: NCI-H226 lung
HCT-15 colon = test system: HCT-15 colon
KM12 colon = test system: KM12 colon
OVCAR-4 ovarian = test system: OVCAR-4 ovarian
DU-145 prostate = test system: DU-145 prostate

Compound	TGI (IGROV1 ovarian)	TGI (HCC-2998 colon)	TGI (MOLT-4 leukemia)	TGI (U251 CNS)	TGI (SK-OV-3 ovarian)	TGI (NCI-H226 lung)	TGI (HCT-15 colon)	TGI (KM12 colon)	TGI (OVCAR-4 ovarian)	TGI (DU-145 prostate)	GI50 (IGROV1 ovarian)	GI50 (HCC-2998 colon)	GI50 (MOLT-4 leukemia)	GI50 (U251 CNS)	GI50 (SK-OV-3 ovarian)	GI50 (NCI-H226 lung)	GI50 (HCT-15 colon)	GI50 (KM12 colon)	GI50 (OVCAR-4 ovarian)	GI50 (DU-145 prostate)
Cc1coc2c1CC1OC1(C)CCC1OC1(C)C2 (configuration not stated)	> 100 µM	> 100 µM	> 100 µM	> 100 µM	> 100 µM	> 100 µM	> 100 µM	> 100 µM	> 100 µM	> 100 µM										
Fc1c[c-]c(-c2ccccn2)c(F)c1.[CH3-].[Pt+2].c1ccc([PH+](c2ccccc2)c2ccccn2)cc1	5.02 µM	3.53 µM	> 100 µM	6.02 µM	> 100 µM	3.8 µM	3.59 µM	6.49 µM	7.06 µM	3.92 µM	1.71 µM	1.83 µM	1.04 µM	1.88 µM	5.09 µM	1.73 µM	1.44 µM	2.53 µM	1.57 µM	1.79 µM
COc1cc([N+](=O)[O-])c(S(=O)(=O)O)cc1N	> 100 µM		> 100 µM	> 100 µM	> 100 µM	> 100 µM	> 100 µM	> 100 µM	> 100 µM	> 100 µM										
COc1ccc(N2CCN(CN3CCN(c4ccc(OC)cc4)C3)C2)cc1	> 100 µM	> 100 µM	37.2 µM	> 100 µM	> 100 µM	> 100 µM	> 100 µM	> 100 µM	> 100 µM	> 100 µM	17 µM	50.4 µM	12.3 µM	> 100 µM	> 100 µM	> 100 µM	37 µM	> 100 µM	> 100 µM	79.7 µM
Cc1c2cnccc2c(C)c2c1c1cc(C(=O)O)ccc1n2C	9.84 µM	4.61 µM	3.38 µM	7.95 µM	7.63 µM	2.47 µM	7.82 µM	6.92 µM	6.59 µM	5.96 µM	0.911 µM	1.25 µM	0.53 µM	0.918 µM	0.905 µM	0.454 µM	0.804 µM	1.04 µM	1.43 µM	1.14 µM
COc1ccc2c(c1)CC[C@@H]1[C@@H]2CC[C@]2(C)c3[nH]ncc3C[C@@H]12	> 50 µM	35.3 µM	40.6 µM	> 50 µM	> 50 µM	> 50 µM	> 50 µM	21.6 µM	> 50 µM	> 50 µM	21.9 µM	13.7 µM	1.8 µM	18.2 µM	35.7 µM	16.6 µM	16.8 µM	10.1 µM	15.4 µM	20.6 µM
FC(F)(F)c1[nH]ncc1-c1nc2c(N3CCCCC3)cc3[nH]ncc3c2c2c1CCCC2	3.66 µM	3.06 µM	2.78 µM	5.67 µM	4.22 µM		> 16.5 µM	7.95 µM	> 15.3 µM	> 13 µM	0.556 µM	0.929 µM	0.744 µM	0.87 µM	0.523 µM		1.07 µM	0.793 µM	1.42 µM	0.702 µM
